# System: neurones de cortex
# Assay: Survival of cortex neurons in primary culture
# Format: cell-based, rat
# Conditions: 10⁻⁵M; after 10 days of culture; versus control cells; p < 0,02, Student t (figure 3)
# Source text: Les dérivés de l'invention ont été testés sur des neurones du système nerveux central en culture primaire. Les cultures sont préparées à partir de cerveaux d'embryons de rats. Les neurones proviennent de l'une des trois zones cérébrales suivantes: le cortex à partir d'embryons de 14 jours, l'hippocampe et le septum à partir d'embryons de 18 jours. Les cellules sont ensemencées à faible densité (10⁵ cellules/lamelle) sur des lamelles prétraitées avec de la poly-L-lysine. Les cellules sont maintenues dans un milieu de culture chimiquement défini. Les dérivés testés sont ajoutés le premier jour de la mise en culture des cellules à des doses variant de 10⁻⁹ M à 10⁻⁴ M. Le changement de milieu se fait tous les quatre jours avec addition des composés à tester.
# On suit la survie des neurones en culture à l'aide d'un microscope en contraste de phase. De manière générale, les cellules témoins dégénèrent après 11 jours de culture alors que le nombre de cellules survivantes est significativement élevé dans les cultures traitées avec les dérivés de l'invention.
# A titre d'exemple, l'effet du composé A₁, sur la survie des neurones de cortex est représenté sur la figure 3. Ce graphique représente le nombre de neurones survivants après 10 jours de culture.
smiles,measurement,value
CC1=C(CCCCCCCCCCCO)C(C)(C)CCC1 [composé A₁],nombre de neurones survivants,significativement augmenté
